{"source": "patent US20190365744A1", "about": "“IMPROVED MULTI TYROSINE KINASE INHIBITOR THERAPY” (FRAUNHOFER-GESELLSCHAFT ZUR FORDERUNG DER ANGEWANDTEN …, priority 2017, published 2019)", "tested_on": "CXCR4", "assay": "CXCR4 PET/CT with tracer 68Ga-Pentixafor in patients with idiopathic pulmonary fibrosis, prior to and under therapy", "assay_type": "in vivo, human", "conditions": "for CXCR4 signal (PET/CT): patients with idiopathic pulmonary fibrosis, after onset of therapy vs prior to therapy, 68Ga-Pentixafor tracer", "description": "Patients were diagnosed with clinical idiopathic pulmonary fibrosis according to diagnostic criteria of the American Thoracic Society/European Respiratory Society.\nPentixafor synthesis. Material for synthesis of ^68Ga-pentixafor (CPCR4.2) was provided by Scintomics (Fürstenfeldbruck, Germany) Synthesis was performed as previously described (18, 19), using a ^68Ge/^68Ga-generator (Eckert&Ziegler, Braunschweig, Germany) connected to a Scintomics GRP synthesis module.\nClinical Imaging. All studies were obtained on a dedicated PET/CT system (Biograph mCT 128 Flow; Siemens, Knoxville, USA), equipped with an extended field-of-view LSO PET component, a 128-slice spiral CT component, and a magnetically driven table optimized for continuous scanning The patients received an intravenous injection of 110 (IQR, 80-120) MBq of ^68Ga-pentixafor. Imaging started with a low-dose non-enhanced helical CT (120 kV, mA modulated, pitch 1.2, reconstructed axial slice thickness 5.0 mm) performed for attenuation correction of PET acquisitions. PET images of the whole body were then acquired using continuous bed motion (CBM) at a speed of 2.0 mm/s for head and neck and 0.5 mm/s for chest and abdomen at 60 min post injection. All studies were reconstructed using time-of-flight and point-spread function information combined with an iterative algorithm (Ultra HD®, Siemens Healthcare; 2 iterations, 21 subsets, matrix 200; zoom 1.0; Gaussian filter of 5.0). In addition, a non-contrast breath-hold high-resolution CT (HRCT) (120 kV, mA modulated) of the chest was used to obtain contiguous 1.0-mm cross-sectional slices throughout the thorax.\nPET/CT image analysis. Transaxial PET, CT and fused PET/CT 68Ga-pentixafor PET/CT images were analyzed on a dedicated workstation equipped with a commercial software package (syngo.via; Siemens Healthcare).\nPET images were visually evaluated for the presence of elevated radiotracer uptake in lung parenchyma in areas of usual interstitial pneumonia (UIP) pattern on CT. Then, ^68Ga-Pentixafor uptake was quantified using a 3D Volume-of-Interest (VOI) technique with isocontour thresholding, yielding mean and peak standardized uptake values (SUVmean and SUVpeak). Separate measurements were performed in three subpleural regions in each lung lobe, and values for each region were then averaged for the subsequent statistical analysis. Tracer uptake in mediastinal and hilar lymph nodes was assessed in three thoracic lymph node stations using 3D VOIs with isocontour thresholding, and also averaged for the subsequent statistical analysis. In addition, tracer uptake (SUVmean) in spleen and bone marrow was […], recorded to evaluate systemic interactions.\nPatients suffering from idiopathic pulmonary fibrosis were investigated for CXCR4 abundance by PET/CT using a CXCR4 tracer ^68Ga-Pentixafor as described.\nThe mean signal intensities (SUVmean) were determined in different regions, i.e. upper-, middle and lower fields. The volume of CXCR4-positive areas were determined and put into relation to the total volume of the respective areas. The extent of the fibrotic areas were judged in PET/CT and the SUVmean was determined for mediastinal lymph nodes, spleen and bone marrow.", "data": [{"smiles": "COC(=O)c1ccc2c(c1)NC(=O)/C2=C(\\Nc1ccc(N(C)C(=O)CN2CCN(C)CC2)cc1)c1ccccc1", "note": "[Nintedanib]", "values": [{"measurement": "CXCR4 signal, single further patient", "setting": "one of 5 analyzed patients under treatment", "result": "constant"}, {"measurement": "CXCR4 signal intensity, single patient with familial idiopathic pulmonary fibrosis", "setting": "one of 5 analyzed patients, unclear whether drug was taken on the day of investigation", "result": "decrease"}, {"measurement": "CXCR4 signal (PET/CT)", "result": "increase"}, {"measurement": "CXCR4 signal (PET/CT)", "setting": "listed as Nitedanib", "result": "significant increase"}, {"measurement": "patients showing a strong increase in CXCR4 signal intensity in the fibrotic areas in the lung", "setting": "under treatment, these patients received 150 mg in the morning of the PET/CT day", "result": "3 out of 5"}]}, {"smiles": "Cc1ccc(=O)n(-c2ccccc2)c1", "note": "[Pirfenidone]", "values": [{"measurement": "signal intensities for CXCR4", "setting": "cohort of 12 patients with idiopathic pulmonary fibrosis under treatment vs baseline", "result": "remained constant or even decreased"}, {"measurement": "strong increase of CXCR4 signal in pulmonary fibrotic areas", "setting": "patients with idiopathic pulmonary fibrosis under treatment", "result": "not observed"}]}]}
